Data reported in patent US10774086B2, “GSK-3 inhibitors” (BRISTOL-MYERS SQUIBB COMPANY, priority 2016, dated 2020).

What was measured:
GSK3β = GSK3β (Homo sapiens (Human), UniProt P49841); test: GSK3β kinase assay (Caliper LabChip, fluoresceinated peptide substrate); type: biochemical; settings: 250 pM enzyme, 20 uM ATP, 1.5 uM peptide, 20 hours room temperature; read-out: GSK3β IC50 (first value of GSK3β/GSK3α)
Description: The kinase assay was performed in V-bottom 384-well plates. […] The reaction was incubated at room temperature for 20 hours and terminated by adding 45 μl of 35 mM EDTA to each sample. The reaction mixture was analyzed on the Caliper LabChip3000 (Caliper, Hopkinton, Mass.) by electrophoretic separation of the unphosphorylated substrate and phosphorylated product. […] Compounds were dissolved at 10 mM in dimethylsulfoxide (DMSO) and evaluated at eleven concentrations. IC50 values were derived by non-linear regression analysis.

pTau = pTau assay; type: cell-based
GSK3α = GSK3α (Homo sapiens (Human), UniProt P49840); test: GSK3α kinase assay (Caliper LabChip, fluoresceinated peptide substrate); type: biochemical; settings: 250 pM enzyme, 20 uM ATP, 1.5 uM peptide, 20 hours room temperature; read-out: GSK3α IC50 (second value of GSK3β/GSK3α)
Description: IC50 values were derived by non-linear regression analysis.

GSK3β, sequence (P49841 whole entry, species assumed): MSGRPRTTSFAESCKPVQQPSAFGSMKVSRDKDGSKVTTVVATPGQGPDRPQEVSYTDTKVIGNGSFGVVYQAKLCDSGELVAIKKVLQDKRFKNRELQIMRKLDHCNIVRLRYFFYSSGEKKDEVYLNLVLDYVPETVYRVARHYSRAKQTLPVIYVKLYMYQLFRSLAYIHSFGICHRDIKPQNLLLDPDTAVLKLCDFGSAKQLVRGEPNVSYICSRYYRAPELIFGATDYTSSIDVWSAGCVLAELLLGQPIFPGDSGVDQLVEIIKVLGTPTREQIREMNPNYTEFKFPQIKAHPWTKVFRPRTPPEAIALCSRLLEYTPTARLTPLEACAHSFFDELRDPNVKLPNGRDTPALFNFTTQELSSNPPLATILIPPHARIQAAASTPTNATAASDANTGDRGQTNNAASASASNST
GSK3α, sequence (P49840 whole entry, species assumed): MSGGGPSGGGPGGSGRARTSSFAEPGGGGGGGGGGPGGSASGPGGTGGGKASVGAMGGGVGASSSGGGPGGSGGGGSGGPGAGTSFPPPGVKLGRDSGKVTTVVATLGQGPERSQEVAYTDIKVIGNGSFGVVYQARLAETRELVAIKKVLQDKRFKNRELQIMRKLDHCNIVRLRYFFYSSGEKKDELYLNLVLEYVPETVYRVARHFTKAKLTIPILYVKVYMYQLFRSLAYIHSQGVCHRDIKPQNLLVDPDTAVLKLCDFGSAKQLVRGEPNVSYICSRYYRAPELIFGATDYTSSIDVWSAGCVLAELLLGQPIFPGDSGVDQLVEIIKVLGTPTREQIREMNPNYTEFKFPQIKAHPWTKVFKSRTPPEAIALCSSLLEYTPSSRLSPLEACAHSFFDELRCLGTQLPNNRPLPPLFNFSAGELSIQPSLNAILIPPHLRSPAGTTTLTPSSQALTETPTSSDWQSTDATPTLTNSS

IC50 (GSK3β) [nM] | IC50 (pTau) [nM] | IC50 (GSK3α) [nM] | SMILES
2.6 | 60 | 0.8 | CC1CN(c2ccncc2NC(=O)c2ccnn3cc(C4CC4)nc23)CCO1 (centres unmarked) [Example 32, 2-Cyclopropyl-N-(4-(2-methylmorpholino)pyridin-3-yl)imidazo[1,2-b]pyridazine-8-carboxamide]
0.3 | 24 | 0.2 | O=C(Nc1cnccc1N1CCC(F)CC1)c1ccnn2cc(-c3ccccc3)nc12 [Example 11, N-(4-(4-Fluoropiperidin-1-yl)pyridin-3-yl)-2-phenylimidazo[1,2-b]pyridazine-8-carboxamide]
5.3 | 620 | 1 | CCOc1ncncc1NC(=O)c1ccnn2cc(-c3ccccc3)nc12 [Example 37, N-(4-Ethoxypyrimidin-5-yl)-2-phenylimidazo[1,2-b]pyridazine-8-carboxamide]
2.3 | 160 | 0.6 | O=C(Nc1cnc(F)cc1N1CCC(F)(F)CC1)c1ccnn2cc(-c3ccccc3)nc12 [Example 20, N-(4-(4,4-Difluoropiperidin-1-yl)-6-fluoropyridin-3-yl)-2-phenylimidazo[1,2-b]pyridazine-8-carboxamide]
1.4 | 120 | 0.6 | CC1CN(c2ccncc2NC(=O)c2ccnn3cc(-c4ccc(C(F)(F)F)cc4)nc23)CCO1 (centres unmarked) [Example 26, N-(4-(2-Methylmorpholino)pyridin-3-yl)-2-(4-(trifluoromethyl)phenyl)imidazo[1,2-b]pyridazine-8-carboxamide]
0.6 | 140 | 0.2 | CC1CN(c2cc(F)ncc2NC(=O)c2ccnn3cc(-c4ccccc4)nc23)CCO1 (centres unmarked) [Example 21, N-(6-fluoro-4-(2-methylmorpholino)pyridin-3-yl)-2-phenylimidazo[1,2-b]pyridazine-8-carboxamide]
3.5 | 250 | 0.8 | Cc1ccncc1NC(=O)c1ccnn2cc(-c3ccccc3)nc12 [Example 2, N-(4-Methylpyridin-3-yl)-2-phenylimidazo[1,2-b]pyridazine-8-carboxamide]
3.4 | 320 | 3.2 | O=C(Nc1cnccc1-c1ccccc1)c1ccnn2c(NCC3CC3)cnc12 [Example 42, 3-((Cyclopropylmethyl)amino)-N-(4-phenylpyridin-3-yl)imidazo[1,2-b]pyridazine-8-carboxamide]
14 | 2000 | 2.9 | O=C(Nc1cnc(Cl)cc1N1CCC(F)(F)CC1)c1ccnn2cc(-c3ccccc3)nc12 [Example 22, N-(6-Chloro-4-(4,4-difluoropiperidin-1-yl)pyridin-3-yl)-2-phenylimidazo[1,2-b]pyridazine-8-carboxamide]
1.1 | 160 | 0.3 | N#Cc1ccc(-c2ccncc2NC(=O)c2ccnn3cc(-c4ccccc4)nc23)cc1 [Example 8, N-(4-(4-Cyanophenyl)pyridin-3-yl)-2-phenylimidazo[1,2-b]pyridazine-8-carboxamide]
3.6 | 900 | 1.1 | O=C(Nc1cnccc1-c1ccccc1)c1ccnn2cc(-c3ccccc3)nc12 [Example 6, 2-Phenyl-N-(4-phenylpyridin-3-yl)imidazo[1,2-b]pyridazine-8-carboxamide]
1.1 | – | 0.2 | O=C(Nc1cnccc1N1CCCCC1)c1ccnn2cc(-c3ccccc3)nc12 [Example 9, 2-Phenyl-N-(4-(piperidin-1-yl)pyridin-3-yl)imidazo[1,2-b]pyridazine-8-carboxamide]
0.4 | 28 | 0.1 | O=C(Nc1cnccc1N1CCC(F)(F)CC1)c1ccnn2cc(C3=CCCCC3)nc12 [Example 34, 2-(Cyclohex-1-en-1-yl)-N-(4-(4,4-difluoropiperidin-1-yl)pyridin-3-yl)imidazo[1,2-b]pyridazine-8-carboxamide]
220 | > 10000 | 900 | O=C(Nc1cccnc1)c1ccnn2c(NCC3CC3)cnc12 [Example 39, 3-((Cyclopropylmethyl)amino)-N-(pyridin-3-yl)imidazo[1,2-b]pyridazine-8-carboxamide]
1.5 | 120 | 0.4 | CS(=O)(=O)c1ccncc1NC(=O)c1ccnn2cc(-c3ccccc3)nc12 [Example 5, N-(4-(Methylsulfonyl)pyridin-3-yl)-2-phenylimidazo[1,2-b]pyridazine-8-carboxamide]
– | 660 | – | O=C(Nc1cccnc1)c1ccnn2cc(-c3ccccc3)nc12 [Example 1, 2-Phenyl-N-(pyridin-3-yl)imidazo[1,2-b]pyridazine-8-carboxamide]
0.8 | 49 | 0.2 | O=C(Nc1cnccc1N1CCOCC1)c1ccnn2cc(-c3ccc(C(F)(F)F)cc3)nc12 [Example 25, N-(4-Morpholinopyridin-3-yl)-2-(4-(trifluoromethyl)phenyl)imidazo[1,2-b]pyridazine-8-carboxamide]
0.4 | 30 | 0.2 | O=C(Nc1cnccc1N1CCC(F)(F)CC1)c1ccnn2cc(-c3ccccc3)nc12 [Example 12, N-(4-(4,4-Difluoropiperidin-1-yl)pyridin-3-yl)-2-phenylimidazo[1,2-b]pyridazine-8-carboxamide]
1.1 | 41 | 2 | O=C(Nc1cnccc1N1CCC(F)(F)CC1)c1ccnn2c(NCC3CC3)cnc12 [Example 43, 3-((Cyclopropylmethyl)amino)-N-(4-(4,4-difluoropiperidin-1-yl)pyridin-3-yl)imidazo[1,2-b]pyridazine-8-carboxamide]
0.3 | 22 | 0.1 | O=C(Nc1cnccc1OCC(F)(F)F)c1ccnn2cc(-c3ccccc3)nc12 [Example 4, 2-Phenyl-N-(4-(2,2,2-trifluoroethoxy)pyridin-3-yl)imidazo[1,2-b]pyridazine-8-carboxamide]
1.9 | 380 | 0.4 | O=C(Nc1cnccc1-c1ccc(F)cc1)c1ccnn2cc(C3CC3)nc12 [Example 30, 2-Cyclopropyl-N-(4-(4-fluorophenyl)pyridin-3-yl)imidazo[1,2-b]pyridazine-8-carboxamide]
1.3 | – | 0.4 | O=C(Nc1cnccc1N1CCOCC1)c1ccnn2cc(-c3cccnc3)nc12 [Example 36, N-(4-Morpholinopyridin-3-yl)-2-(pyridin-3-yl)imidazo[1,2-b]pyridazine-8-carboxamide]
0.2 | – | 0.1 | N#CC1CCN(c2ccncc2NC(=O)c2ccnn3cc(-c4ccccc4)nc23)CC1 [Example 10, N-(4-(4-Cyanopiperidin-1-yl)pyridin-3-yl)-2-phenylimidazo[1,2-b]pyridazine-8-carboxamide]
37 | 3200 | – | COc1cncc(NC(=O)c2ccnn3cc(-c4ccccc4)nc23)c1 [Example 19, N-(5-Methoxypyridin-3-yl)-2-phenylimidazo[1,2-b]pyridazine-8-carboxamide]
1.6 | – | 0.6 | O=C(Nc1cnccc1-c1ccc(F)cc1)c1ccnn2cc(-c3ccccc3)nc12 [Example 7, N-(4-(4-Fluorophenyl)pyridin-3-yl)-2-phenylimidazo[1,2-b]pyridazine-8-carboxamide]
